The values below come from ChEMBL document CHEMBL1134958 (Bioorg Med Chem Lett, 2002).

A value given as a limit tells only on which side of the number the result lay.

For data set [1], the target named is Tryptase (Homo sapiens, UniProt Q9BZJ3+Q15661+Q9NRR2). The data set can be described thus: Inhibitory concentration against human tryptase.
Data set [2] can be described thus: Ratio of inhibitory activities against human tryptase to that of human tissue plasminogen activator (tissue plasminogen activator).
Data set [3] can be described thus: Ratio of inhibitory activities against human tryptase to that of human trypsin.
Data set [4] can be described thus: Aqueous stability was evaluated as half life at 37 degree C at pH 7. The data set is classed as physicochemical. The settings on record: aqueous solution.
Data set [5] can be described thus: Ratio of inhibitory activities against human tryptase to that of human plasmin.
Data set [6] can be described thus: Ratio of inhibitory activities against human tryptase to that of human urokinase plasminogen activator (microPa).
A short description of data set [7]: Ratio of inhibitory activities against human tryptase to that of human thrombin.
A short description of data set [8]: Aqueous stability was evaluated as half life at 37 degree C at pH 9. The format is physicochemical. The settings on record: aqueous solution.

The term IC50 denotes the point on the concentration scale where inhibition reaches its midpoint. `CC(C)C(OC(=O)N1CCN(C(=O)N2C(=O)[C@H](CC3CCCN(C(=N)N)C3)[C@H]2C(=O)O)CC1)C(C)C` (single isomer, unassigned) [listing 1 of 2 here]: in data set [1], the IC50 was 204 nM.

Molecule `CC(C)C(OC(=O)N1CCN(C(=O)N2C(=O)[C@H](CC3CCCN(C(=N)N)C3)[C@H]2C(=O)O)CC1)C(C)C` (stereo in doubt; form 2) [listing 1 of 2 here] came in with an IC50 in data set [1] of 63 nM.

As usually defined, the half-life is the time needed for the level to fall by half in the phase considered. Turning to `CC(C)(C)NC(=O)N1CCN(C(=O)N2C(=O)[C@H](CCCN=C(N)N)[C@H]2C(=O)O)CC1`, the Ratio in data set [2] is above 8250; in data set [3], 18; in data set [5], 430; in data set [6], 135; in data set [7], 2620. The molecule also registered a half-life in data set [4] above 48 h.

In data set [1], `N=C(N)N1CCCC(C[C@H]2C(=O)N(C(=O)N3CCN(C(=O)CCCCCc4ccccc4)CC3)[C@@H]2C(=O)O)C1` (stereo partly specified) displayed an IC50 below 1.7 nM. Moreover, the Ratio is above 19400 in data set [2]; above 1940 in data set [3]; above 16300 in data set [5]; above 17500 in data set [6]; above 19400 in data set [7]. The half-life in data set [8] was above 17.5 h; in data set [4] it was above 48 h.

Take `N=C(N)N1CCC[C@H](C[C@H]2C(=O)N(C(=O)N3CCN(C(=O)CCCCCc4ccccc4)CC3)[C@@H]2C(=O)O)C1`: in data set [1], the IC50 is reported as below 1.7 nM. Also, the Ratio in data set [2] was above 19400; in data set [3], above 3390; in data set [5], above 12900; in data set [6] it was above 11800; in data set [7] it was above 19400. Moreover, the half-life was above 17.5 h in data set [8] and above 48 h in data set [4].

In data set [1], `CN(CCCCc1ccccc1)C(=O)N1CCN(C(=O)N2C(=O)[C@H](CC3CCCN(C(=N)N)C3)[C@H]2C(=O)O)CC1` (stereo partly specified) displayed an IC50 of 6 nM. Moreover, the Ratio in data set [2] is above 5500; in data set [3], 2170; in data set [5], 3620; in data set [6], above 5500; in data set [7], above 5500. Also, the half-life was 23.9 h in data set [8] and above 48 h in data set [4].

`CC(C)C(OC(=O)N1CCN(C(=O)N2C(=O)[C@H](CC3CN(C(=N)N)C3)[C@H]2C(=O)O)CC1)C(C)C` registered an IC50 in data set [1] of 12 nM. The Ratio in data set [2] was 2840; in data set [3], 7; in data set [5] it was 394; in data set [6], 862; in data set [7] it was above 2840. The half-life in data set [8] is 14.4 h; in data set [4] it was above 48 h.

Take `CC(C)C(OC(=O)N1CCN(C(=O)N2C(=O)[C@H](CC3CCCN(C(=N)N)C3)[C@H]2C(=O)O)CC1)C(C)C` (single isomer, unassigned) [listing 2 of 2 here]: the Ratio in data set [2], in data set [3], in data set [5], in data set [6] and in data set [7] was above 162 each time.

`N=C(N)NCCC[C@H]1C(=O)N(C(=O)N2CCN(C(=O)CCCCCc3ccccc3)CC2)[C@@H]1C(=O)O`: in data set [1], the IC50 is below 1.7 nM. Further, the Ratio in data set [2] was above 16500; in data set [3], above 8; in data set [5], above 26; in data set [6], above 226; in data set [7], above 16500.

Turning to `CC(C)C(OC(=O)N1CCN(C(=O)N2C(=O)[C@H](CC3CCCN(C(=N)N)C3)[C@H]2C(=O)O)CC1)C(C)C` (stereo in doubt; form 1) [listing 1 of 2 here], the Ratio in data set [2] was above 465; in data set [3] it was 258; in data set [5] it was above 465; in data set [6], above 465; in data set [7], above 465.

As to `N=C(N)N1CCCC(C[C@H]2C(=O)N(C(=O)N3CCN(C(=O)NCCCCc4ccccc4)CC3)[C@@H]2C(=O)O)C1` (stereo partly specified), the IC50 in data set [1] is below 1.7 nM. The Ratio in data set [2] is above 19400; in data set [3], above 1360; in data set [5] it was above 16100; in data set [6] it was above 8780; in data set [7], above 19400. The half-life was 12 h in data set [8] and above 48 h in data set [4].

Consider `N=C(N)N1CCCC(C[C@H]2C(=O)N(C(=O)N3CCN(C(=O)CCCCCc4ccccn4)CC3)[C@@H]2C(=O)O)C1` (stereo partly specified), for which, in data set [1], the IC50 is given as 4.6 nM. Further, the Ratio in data set [2] is above 7150; in data set [3] it was 739; in data set [5] it was above 7150; in data set [6], 5000; in data set [7], above 7150.

In turn, `N=C(N)N1CCCC(C[C@H]2C(=O)N(C(=O)N3CCN(C(=O)OCCCOc4ccccc4)CC3)[C@@H]2C(=O)O)C1` (stereo partly specified) returned an IC50 in data set [1] below 1.7 nM. The Ratio was above 19400 in data set [2]; above 1680 in data set [3]; above 92500 in data set [5]; above 19400 in data set [6]; above 19400 in data set [7].

In data set [1], `CC(C)C(OC(=O)N1CCN(C(=O)N2C(=O)[C@H](CCCN=C(N)N)[C@H]2C(=O)O)CC1)C(C)C` returned an IC50 of 4 nM. In addition, the Ratio in data set [2] was 9170; in data set [3], 5; in data set [5] it was 364; in data set [6], 843; in data set [7], above 9170. For the same molecule, the half-life in data set [8] is 7.3 h; in data set [4], above 48 h.

In the case of `CC(C)C(OC(=O)N1CCN(C(=O)N2C(=O)[C@H](CC3CCCN(C(=N)N)C3)[C@H]2C(=O)O)CC1)C(C)C` (stereo in doubt; form 2) [listing 2 of 2 here], the Ratio is above 465 in data set [2]; 364 in data set [3]; above 465 in data set [5]; above 465 in data set [6]; above 465 in data set [7].

The molecule `CC(C)C(OC(=O)N1CCN(C(=O)N2C(=O)[C@H](CC3CCCN(C(=N)N)C3)[C@H]2C(=O)O)CC1)C(C)C` (stereo in doubt; form 1) [listing 2 of 2 here] displayed a 50% inhibitory concentration (IC50) in data set [1] of 71 nM. In addition, the half-life in data set [8] and in data set [4] was above 48 h each time.

`N=C(N)N1CCCC(C[C@H]2C(=O)N(C(=O)N3CCN(C(=O)CCCCCC4CCCCC4)CC3)[C@@H]2C(=O)O)C1` (stereo partly specified) returned an IC50 in data set [1] of 1.9 nM. In addition, the Ratio was above 17400 in data set [2]; 1680 in data set [3]; 8420 in data set [5]; 12100 in data set [6]; above 17400 in data set [7].

With `N=C(N)N1CCC[C@@H](C[C@H]2C(=O)N(C(=O)N3CCN(C(=O)CCCCCc4ccccc4)CC3)[C@@H]2C(=O)O)C1`, the IC50 in data set [1] was below 1.7 nM. In addition, the Ratio was above 19400 in data set [2]; above 3280 in data set [3]; above 19400 in data set [5]; above 19400 in data set [6]; above 19400 in data set [7]. For the same molecule, the half-life in data set [8] is above 17.5 h; in data set [4], above 48 h.
